In general, solubility refers to how much of the substance goes into solution per volume. A high value points to a readily soluble substance.

These results are taken from patent publication US8318737B2, “Compounds and compositions for treating cancer” (Canthera Therapeutics Inc., priority 2009, dated 2012).

In brackets after ≈: the same amount, converted by molar mass. Counter-ions that a name gives are not always drawn.

A short description of one data set: solubility in water. It is filed as physicochemical.
Data set [1] can be described thus: precipitation of DMSO solution diluted 1:10 in phosphate buffered saline or water. It is filed as physicochemical. The procedure: The compounds of the present invention may be produced using piperlongumine as a starting material yet offer numerous advantages over piperlongumine. […] The compounds of the instant invention are highly soluble in water at concentration of at least 25 mg/mL facilitating pharmaceutical preparation and delivery. Many chemotherapeutic agents transiently increase ROS levels in both cancer cells and normal cells.

As to `COc1cc(/C=C/C(=O)N2CCC=CC2=O)cc(OC)c1OC` [piperlongumine, Piperlongumine], the solubility in water in “solubility in water” was 0.1 mg/mL (≈ 315 µM). Also, the “concentration in DMSO that precipitated out when diluted 1:10” value in data set [1] is given as “more than 0.25 mg/ml”.

`COc1cc(/C=C/C(=O)N2CCC=CC2=O)cc(OC)c1OCCN1CCOCC1` [tartrate salt of compound one] displayed a solubility in “solubility in water” of 100 mg/mL.
